# Like-named read-outs stand apart in the source and are kept apart here.
# Experiments:
# [1] = tested on: BALB/cJ mice; settings: acute 10 mg/kg fluoxetine; cited from earlier work
# [2] = tested on: animals; settings: animals without drug withdrawal or chronic stress; low dose fluoxetine; cited from earlier work
# [3] = tested on: BALB/cJ, DBA/2J, C57BL/6J, and 129SvEv mice; test: Open field test, strain comparison; format: in vivo, mouse; settings: for center measures: chronic fluoxetine 5 or 10 mg/kg/day
# Experimental: For the strain comparison study, 36 male mice of four strains (BALB/cJ, DBA/2J, C57BL/6J, 129SvEv) were subjects for a total of 144 mice. Mice were tested in the OF beginning on day 30 or 33 of chronic fluoxetine treatment. Mice were tested for 15 min on three consecutive days to maximize activity levels. Mice were then tested in the modified FST on day 36 or 37.
# (§1) Open field test: Motor activity was quantified in four Plexiglas OF boxes 43 x 43 cm (MED Associates, Georgia, Vt.). Two sets of 16 pulse-modulated infrared photobeams were placed on opposite walls 2.5-cm apart to record x-y ambulatory movements. Activity chambers were computer interfaced for data sampling at 100-ms resolution. The computer defined grid lines that divided each OF into center and surround regions, with each of four lines being 11 cm from each wall. Dependent measures were the number of entries into the center, the distance traveled in the center, total time spent in the center, and distance traveled in the center divided by total distance traveled. Overall motor activity was quantified as the total distance traveled (cm).
# (§2) Open field test: For Experiment 1, two-factor ANOVAs with fluoxetine as a between-subject factor and day as a within-subject factor were applied to five measures for each strain: time spent in the center, distance traveled in the center, center distance/total distance traveled, entries into the center, and total distance traveled. Main effects of fluoxetine or significant interactions of fluoxetine and day were resolved using post-hoc ANOVAs with adjusted p-values and/or Newman-Keuls post-hoc tests. Subchronic and chronic experiments in Balb/cJ mice were analyzed using one-way ANOVAs with fluoxetine as a between-subjects factor and Newman-Keuls post-hoc tests for the same variables. Because data deviated substantially from a normal distribution due to low activity levels of Balb/cJ mice, analyses were applied to log transformed data.
# (§3) Remaining significant effects of fluoxetine indicate independence between measures of locomotor activity and center measures.
# [4] = tested on: BALB/cJ mice; test: Modified forced swim test, chronic vs. subchronic fluoxetine; format: in vivo, mouse
# Experimental: (§4) For chronic fluoxetine studies in BALB/cJ mice, 60 male BALB/cJ mice were tested in the OF for 30 min on days 19 or 20 of chronic fluoxetine treatment. Mice were then pretested and tested in the modified FST on days 21 and 22, respectively. Animals were then allowed to adapt to being singly housed, and were trained for NIH on days 25-27. Home cage and novel cage testing occurred on days 28 and 29, respectively. Mice were then assessed for PPI on days 34 or 35.
# (§5) Studies of subchronic fluoxetine were conducted using separate groups of 60 male BALB/cJ mice to prevent fluoxetine treatment from exceeding one week. One group was tested in the OF after one day of subchronic fluoxetine treatment. Mice were then pretested after 6 and tested after 7 days of subchronic fluoxetine treatment in the modified FST. A second group of BALB/cJ mice began fluoxetine treatment after being singly housed. They were then tested in the NIH test after 4 (home) and 5 (novel) days of subchronic fluoxetine treatment. A third group was tested for PPI after one or two days of subchronic fluoxetine treatment.
# Modified forced swim test: Mice were placed into 19 cm diameter plastic buckets which were 23 cm deep filled with 23°-25° C. water, and videotaped for six minutes. Only the last four minutes were scored for four measures: swimming, immobility, climbing, or other. The predominant behavior was recorded every 5 sec. For chronic and subchronic fluoxetine studies in BALB/cJ mice, mice were pre-exposed to the FST for 6 min 24 hours before test day to increase sensitivity for detecting antidepressant behavioral effects (Borsini et al., 1989).
# Modified forced swim test: Two-factor ANOVAs with fluoxetine as a between-subjects factor and block (1 min intervals) as a within-subject factor were applied to three different measures: swimming, immobility, and climbing. Significant main effects of fluoxetine and interactions were resolved using post-hoc ANOVAs with adjusted p-values, and/or Newman-Keuls post-hoc tests.
# [5] = tested on: BALB/cJ mice; test: Novelty induced hypophagia test; format: in vivo, mouse
# Experimental: as §4, §5
# Novelty induced hypophagia test: Mice were singly housed several days before training began. For three consecutive days of training, mice were presented with diluted (1:3; milk:water) sweetened condensed milk (Carnation) in pipettes in the home cage for 30 min. Testing occurred on days 4 and 5 when mice were presented with the milk, and latency to drink and the volume consumed were recorded every five minutes for 30 min. On day 4, testing occurred in the home cage under dim lighting (approx. 50 lux). Mice were briefly removed from the cage to position pipettes, and testing began when mice were returned to their cages. On day 5, mice were placed into new cages of the same dimensions without shavings under bright lighting (approx. 1200 lux). White paper was placed under cages to enhance aversiveness on day 5.
# Novelty induced hypophagia test: For latency scores, a maximum cut-off of 600 sec was used. Two-factor ANOVAs with home/novel cage condition as a within-subjects factor and fluoxetine as a between-subjects factor were applied to latency values. Main effects of fluoxetine or significant interactions of fluoxetine and home/novel cage condition were resolved using post-hoc ANOVAs with adjusted p-values and/or Newman-Keuls post-hoc tests. For consumption data, a three-factor ANOVA with block (5 min intervals) and home/novel cage condition as within-subjects factors and fluoxetine as a between-subjects factor was used to assess whether the novel cage was sufficiently anxiogenic to reduce consumption. Two-factor ANOVAs with block as a within-subjects factor and fluoxetine as a between-subjects factor were applied separately to consumption values for the home and the novel cage. Main effects of fluoxetine or significant interactions were resolved using post-hoc ANOVAs with adjusted p-values and/or Newman-Keuls post-hoc tests.
# [6] = tested on: BALB/cJ mice; test: Open field test, chronic vs. subchronic fluoxetine; format: in vivo, mouse
# Experimental: as §4, §5, §1, §2, §3
# [7] = 129SvEv mice, chronic 5 and 10 mg/kg/day, day 1, relative to controls
# [8] = subchronic (4-5 days) fluoxetine
# [9] = chronic 18 mg/kg/day vs controls
structure (smiles),measurement,setting,value
CNCCC(Oc1ccc(C(F)(F)F)cc1)c1ccccc1 (centres unmarked) [fluoxetine],immobility,[1],reduces immobility acutely
same,intracranial self-stimulation reward thresholds,[2],no effect
same,locomotor activity,"[3]; 129SvEv mice, chronic 10 mg/kg/day, relative to both other doses on day 1 and to 5 mg/kg/day on day 3",reduced locomotor activity
same,time in the center,"[3]; 129SvEv mice, chronic 5 and 10 mg/kg/day",reduced time in the center relative to control
same,center entries,[3]; [7],reduced
same,distance traveled in the center,[3]; [7],reduced the distance traveled in the center
same,center measures,[3]; BALB/cJ mice,produced no changes
same,locomotor activity,"[3]; BALB/cJ mice, chronic fluoxetine 5 or 10 mg/kg/day in drinking water, three consecutive days",no changes in locomotor activity
same,locomotor activity,"[3]; C57BL/6J mice, chronic 10 mg/kg/day, relative to controls",reduced locomotor activity overall
same,entries into the center,"[3]; C57BL/6J mice, chronic 5 and 10 mg/kg/day, relative to control",overall reduction in the number of entries into the center
same,center measures,[3]; DBA/2J mice,produced no changes
same,locomotor activity,"[3]; DBA/2J mice, chronic fluoxetine (10 mg/kg/day vs controls on day 3)",trend towards increased locomotor activity
same,center/total distance traveled,"[3]; any of the four strains, chronic fluoxetine",no effects
same,effect in the modified FST,"[4]; acute administration of 10 mg/kg/day in the drinking water, expected",no effect
same,climbing,[4]; chronic 25 mg/kg/day,increased climbing relative to all other doses
same,swimming,"[4]; chronic 10 and 18 mg/kg/day, compared to 0 and 25 mg/kg/day",increases in swimming
same,immobility,[4]; chronic fluoxetine,No significant effects
same,climbing,[4]; subchronic (7 days) 18 mg/kg/day relative to the 0 dose,increase in climbing
same,immobility,[4]; subchronic (7 days) fluoxetine,no effect
same,swimming,[4]; subchronic (7 days) fluoxetine,no effect
same,"milk consumption in the home cage, first block (0-5 min)",[5]; chronic 25 mg/kg/day,increased milk consumption compared to control
same,"milk consumption in the novel cage, first block (0-5 min)",[5]; chronic 18 and 25 mg/kg/day,increased milk consumption compared to the 0 and 10 mg/kg/day doses
same,latency difference scores (novel minus home),[5]; chronic 18 and 25 mg/kg/day vs control,control animals exhibited significantly larger difference scores
same,latency to drink milk in the home cage,[5]; chronic fluoxetine,"reduced the latency to drink milk in the novel, but not the home cage"
same,latency to drink in the novel cage,"[5]; chronic fluoxetine, all three doses (10, 18, 25 mg/kg/day)",reduced the latency to drink relative to control in a dose-related fashion
same,"consumption in the home cage, post-hoc tests",[5]; subchronic (4-5 days) 25 mg/kg/day,only a trend for the 25 mg/kg/day dose to increase consumption relative to control
same,latency to drink,[5]; [8],no effect on any measure of latency
same,milk consumption,[5]; [8],no effect
same,log of center entries,[6]; chronic 10 mg/kg/day,lower values than groups receiving 18 mg/kg/day and 25 mg/kg/day
same,"center entries, without logarithmic transformation",[6]; [9],made more center entries
same,"center/total distance, without logarithmic transformation",[6]; [9],trend for higher center/total distance values
same,log of center distance,[6]; [9],significantly higher values than controls
same,log of center distance/log total distance traveled,[6]; [9],significantly higher values than controls
same,log of center entries,[6]; [9],significantly higher values than controls
same,log of time in the center,[6]; chronic fluoxetine,no significant effect of drug
same,total locomotor activity (log transformed),"[6]; chronic fluoxetine 10, 18, 25 mg/kg/day, 30 min test",did not alter total locomotor activity
same,"total locomotor activity, without logarithmic transformation","[6]; chronic fluoxetine, all doses",remain unaffected by all doses of drug
same,any measures in the OF,"[6]; subchronic (one day) fluoxetine, untransformed or log transformed",no differences in any measures in the OF

# Reference: US20050186137A1, “Novelty-induced hypophagia-based assays for identifying agents to treat anxiety and depression” (priority 2003, published 2005)
